# Laboratory results: patent US20250353873A1, “COMPOUNDS AND METHODS FOR MODULATING APOE EXPRESSION” (Ionis Pharmaceuticals, Inc., priority 2024, published 2025)
# Strand notation (5' to 3'): a small letter for the sugar, then the base; units joined by * are phosphorothioate-linked, units joined directly phosphodiester-linked; [ ] holds rarer units or linkages, { } end groups; capitals alone tell only the bases. [ms] = mesyl phosphoramidate linkage; e = 2'-O-(2-methoxyethyl) (MOE); k = constrained ethyl (cEt); [5mC] = 5-methylcytosine; d = 2'-deoxy (DNA)
# Test system: human APOE RNA
# Test: Activity in APOE C57BL/6NTac-Apoeem7250 knock-in mice, single ICV bolus, 20 weeks (Example 13)
# Assay type: in vivo
# Conditions: cortex; single ICV bolus 300 μg; 20 weeks post treatment; normalized to mouse Ppia
# Method: (§1) Modified oligonucleotides described above were tested in the APOE C57BL/6NTac-Apoeem7250 knock-in mouse model described above.
# APOE C57BL/6NTac-Apoeem7250 knock-in mice were divided into groups of 4 mice each. Each mouse received a single ICV bolus of 300 μg of modified oligonucleotide. A group of 2-4 mice received a single ICV bolus with PBS as a negative control.
# (§2) Twenty weeks post treatment, mice were sacrificed and RNA was extracted from cortical brain tissue and spinal cord for quantitative real-time RT-PCR analysis of RNA expression of APOE using human primer probe set RTS3073 (described herein above). APOE RNA levels were normalized to mouse Ppia. Mouse Ppia was amplified using primer probe set m_cyclo24 (described herein above). Results are presented as percent human APOE RNA relative to the amount of human APOE RNA in PBS treated animals, (% control). Each experiment is identified in separate tables below.
row,Substance,APOE RNA (% control) Cortex
1,1757583 (eT*eTeGeGeT*dG*dA*dA*dT*d[5mC]*dT*dT*dT*dA*dT*kTeAeA*eA*e[5mC]; antisense) [Compound 1757583],97 % control
2,1757584 (eT*eTeGeGeT*dG*dA*dA*dT*d[5mC]*dT*dT*dT*dA*dT*kTkAeA*eA*e[5mC]; antisense) [Compound 1757584],92 % control
3,1779701 (e[5mC]*eTeT*kG*kG*dT[ms]dG[ms]dA[ms]dA[ms]dT*d[5mC]*dT*dT*dT*dA[ms]dT*eT*eA*eA*eA; antisense) [Compound 1779701],56 % control
4,1779970 (e[5mC]*eTeTkG*kG*eT*dG[ms]dA[ms]dA*dT*d[5mC]*dT*dT*dT*dA*dT*eT*eA*eA*eA; antisense) [Compound 1779970],63 % control

# Same assay, conditions: spinal cord; single ICV bolus 300 μg; 20 weeks post treatment; normalized to mouse Ppia
row,Substance,APOE RNA (% control) Spinal Cord
1,1757583 (eT*eTeGeGeT*dG*dA*dA*dT*d[5mC]*dT*dT*dT*dA*dT*kTeAeA*eA*e[5mC]; antisense) [Compound 1757583],100 % control
2,1757584 (eT*eTeGeGeT*dG*dA*dA*dT*d[5mC]*dT*dT*dT*dA*dT*kTkAeA*eA*e[5mC]; antisense) [Compound 1757584],95 % control
3,1779701 (e[5mC]*eTeT*kG*kG*dT[ms]dG[ms]dA[ms]dA[ms]dT*d[5mC]*dT*dT*dT*dA[ms]dT*eT*eA*eA*eA; antisense) [Compound 1779701],24 % control
4,1779970 (e[5mC]*eTeTkG*kG*eT*dG[ms]dA[ms]dA*dT*d[5mC]*dT*dT*dT*dA*dT*eT*eA*eA*eA; antisense) [Compound 1779970],35 % control

# Test system: human APOE RNA
# Test: Dose-dependent inhibition of human APOE RNA in HepG2 cells, electroporation, 24 hours (Example 6)
# Assay type: cell-based
# Conditions: not given
# Method in brief: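 IC50 derived from APOE RNA levels, given as percent of untreated control after GAPDH normalization (probe sets RTS3073 and RTS104). Oligonucleotides were delivered at multiple concentrations by electroporation into HepG2 cells seeded at 50,000 per well.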
row,Substance,IC50
1,1736514 (e[5mC]*eTeT*eG*kG*kT*dG[ms]dA[ms]dA[ms]dT*d[5mC]*dT*dT*dT*dA[ms]dT*eT*eA*eA*eA; antisense) [Compound 1736514],670 nM
2,1736529 (e[5mC]*eT*eT*eG*eG*eTdG[ms]dA[ms]dA[ms]dT*d[5mC]*dT*dT*dT*dA[ms]dT*kT*kA*eA*eA; antisense) [Compound 1736529],1120 nM

# Same assay, conditions: 5 nM
row,Substance,APOE RNA (% UTC)
1,1736514 (e[5mC]*eTeT*eG*kG*kT*dG[ms]dA[ms]dA[ms]dT*d[5mC]*dT*dT*dT*dA[ms]dT*eT*eA*eA*eA; antisense) [Compound 1736514],121 % UTC
2,1736529 (e[5mC]*eT*eT*eG*eG*eTdG[ms]dA[ms]dA[ms]dT*d[5mC]*dT*dT*dT*dA[ms]dT*kT*kA*eA*eA; antisense) [Compound 1736529],92 % UTC

# Same assay, conditions: 13 nM
row,Substance,APOE RNA (% UTC)
1,1736514 (e[5mC]*eTeT*eG*kG*kT*dG[ms]dA[ms]dA[ms]dT*d[5mC]*dT*dT*dT*dA[ms]dT*eT*eA*eA*eA; antisense) [Compound 1736514],123 % UTC
2,1736529 (e[5mC]*eT*eT*eG*eG*eTdG[ms]dA[ms]dA[ms]dT*d[5mC]*dT*dT*dT*dA[ms]dT*kT*kA*eA*eA; antisense) [Compound 1736529],102 % UTC

# Same assay, conditions: 33 nM
row,Substance,APOE RNA (% UTC)
1,1736514 (e[5mC]*eTeT*eG*kG*kT*dG[ms]dA[ms]dA[ms]dT*d[5mC]*dT*dT*dT*dA[ms]dT*eT*eA*eA*eA; antisense) [Compound 1736514],96 % UTC
2,1736529 (e[5mC]*eT*eT*eG*eG*eTdG[ms]dA[ms]dA[ms]dT*d[5mC]*dT*dT*dT*dA[ms]dT*kT*kA*eA*eA; antisense) [Compound 1736529],92 % UTC

# Same assay, conditions: 82 nM
row,Substance,APOE RNA (% UTC)
1,1736514 (e[5mC]*eTeT*eG*kG*kT*dG[ms]dA[ms]dA[ms]dT*d[5mC]*dT*dT*dT*dA[ms]dT*eT*eA*eA*eA; antisense) [Compound 1736514],77 % UTC
2,1736529 (e[5mC]*eT*eT*eG*eG*eTdG[ms]dA[ms]dA[ms]dT*d[5mC]*dT*dT*dT*dA[ms]dT*kT*kA*eA*eA; antisense) [Compound 1736529],115 % UTC

# Same assay, conditions: 205 nM
row,Substance,APOE RNA (% UTC)
1,1736514 (e[5mC]*eTeT*eG*kG*kT*dG[ms]dA[ms]dA[ms]dT*d[5mC]*dT*dT*dT*dA[ms]dT*eT*eA*eA*eA; antisense) [Compound 1736514],80 % UTC
2,1736529 (e[5mC]*eT*eT*eG*eG*eTdG[ms]dA[ms]dA[ms]dT*d[5mC]*dT*dT*dT*dA[ms]dT*kT*kA*eA*eA; antisense) [Compound 1736529],75 % UTC

# Same assay, conditions: 512 nM
row,Substance,APOE RNA (% UTC)
1,1736514 (e[5mC]*eTeT*eG*kG*kT*dG[ms]dA[ms]dA[ms]dT*d[5mC]*dT*dT*dT*dA[ms]dT*eT*eA*eA*eA; antisense) [Compound 1736514],46 % UTC
2,1736529 (e[5mC]*eT*eT*eG*eG*eTdG[ms]dA[ms]dA[ms]dT*d[5mC]*dT*dT*dT*dA[ms]dT*kT*kA*eA*eA; antisense) [Compound 1736529],56 % UTC

# Same assay, conditions: 1,280 nM
row,Substance,APOE RNA (% UTC)
1,1736514 (e[5mC]*eTeT*eG*kG*kT*dG[ms]dA[ms]dA[ms]dT*d[5mC]*dT*dT*dT*dA[ms]dT*eT*eA*eA*eA; antisense) [Compound 1736514],33 % UTC
2,1736529 (e[5mC]*eT*eT*eG*eG*eTdG[ms]dA[ms]dA[ms]dT*d[5mC]*dT*dT*dT*dA[ms]dT*kT*kA*eA*eA; antisense) [Compound 1736529],45 % UTC

# Same assay, conditions: 3,200 nM
row,Substance,APOE RNA (% UTC)
1,1736514 (e[5mC]*eTeT*eG*kG*kT*dG[ms]dA[ms]dA[ms]dT*d[5mC]*dT*dT*dT*dA[ms]dT*eT*eA*eA*eA; antisense) [Compound 1736514],25 % UTC
2,1736529 (e[5mC]*eT*eT*eG*eG*eTdG[ms]dA[ms]dA[ms]dT*d[5mC]*dT*dT*dT*dA[ms]dT*kT*kA*eA*eA; antisense) [Compound 1736529],29 % UTC

# Same assay, conditions: 8,000 nM
row,Substance,APOE RNA (% UTC)
1,1736514 (e[5mC]*eTeT*eG*kG*kT*dG[ms]dA[ms]dA[ms]dT*d[5mC]*dT*dT*dT*dA[ms]dT*eT*eA*eA*eA; antisense) [Compound 1736514],23 % UTC
2,1736529 (e[5mC]*eT*eT*eG*eG*eTdG[ms]dA[ms]dA[ms]dT*d[5mC]*dT*dT*dT*dA[ms]dT*kT*kA*eA*eA; antisense) [Compound 1736529],13 % UTC

# Same assay, conditions: 20,000 nM
row,Substance,APOE RNA (% UTC)
1,1736514 (e[5mC]*eTeT*eG*kG*kT*dG[ms]dA[ms]dA[ms]dT*d[5mC]*dT*dT*dT*dA[ms]dT*eT*eA*eA*eA; antisense) [Compound 1736514],6 % UTC
2,1736529 (e[5mC]*eT*eT*eG*eG*eTdG[ms]dA[ms]dA[ms]dT*d[5mC]*dT*dT*dT*dA[ms]dT*kT*kA*eA*eA; antisense) [Compound 1736529],30 % UTC

# Test system: human APOE RNA
# Test: Activity in APOE C57BL/6NTac-Apoeem7250 knock-in mice, single ICV bolus, 4 weeks (Example 10)
# Assay type: in vivo
# Conditions: Cortex; C57BL/6NTac-Apoeem7250 knock-in mice, single ICV bolus 300 μg, 4 weeks (Table 22)
# Method: as §1
# APOE C57BL/6NTac-Apoeem7250 knock-in mice were divided into groups of 2-4 mice each. Each mouse received a single ICV bolus of 300 μg of modified oligonucleotide. A group of 3-4 mice received a single ICV bolus with PBS as a negative control.
# as §2, with “Four” for “Twenty”
row,Substance,APOE RNA (% control) Cortex
1,1736514 (e[5mC]*eTeT*eG*kG*kT*dG[ms]dA[ms]dA[ms]dT*d[5mC]*dT*dT*dT*dA[ms]dT*eT*eA*eA*eA; antisense) [Compound 1736514],28 % control
2,1736529 (e[5mC]*eT*eT*eG*eG*eTdG[ms]dA[ms]dA[ms]dT*d[5mC]*dT*dT*dT*dA[ms]dT*kT*kA*eA*eA; antisense) [Compound 1736529],51 % control

# Same assay, conditions: Spinal Cord; C57BL/6NTac-Apoeem7250 knock-in mice, single ICV bolus 300 μg, 4 weeks (Table 22)
row,Substance,APOE RNA (% control) Spinal Cord
1,1736514 (e[5mC]*eTeT*eG*kG*kT*dG[ms]dA[ms]dA[ms]dT*d[5mC]*dT*dT*dT*dA[ms]dT*eT*eA*eA*eA; antisense) [Compound 1736514],54 % control
2,1736529 (e[5mC]*eT*eT*eG*eG*eTdG[ms]dA[ms]dA[ms]dT*d[5mC]*dT*dT*dT*dA[ms]dT*kT*kA*eA*eA; antisense) [Compound 1736529],46 % control

# Test system: human APOE RNA
# Test: Activity in APOE C57BL/6NTac-Apoeem7250 knock-in mice, single ICV bolus, 16 weeks (Example 12)
# Assay type: in vivo
# Conditions: cortex; single ICV bolus 300 μg; 16 weeks post treatment; normalized to mouse Ppia
# Method in brief: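 A single 300 μg intracerebroventricular dose was given, with PBS-treated mice as reference; cortical and spinal cord tissue was taken 16 weeks later. RT-qPCR quantified human APOE RNA, Ppia-normalized, expressed relative to PBS animals (% control).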
row,Substance,APOE RNA (% control) Cortex
1,1736514 (e[5mC]*eTeT*eG*kG*kT*dG[ms]dA[ms]dA[ms]dT*d[5mC]*dT*dT*dT*dA[ms]dT*eT*eA*eA*eA; antisense) [Compound 1736514],39 % control
2,1736529 (e[5mC]*eT*eT*eG*eG*eTdG[ms]dA[ms]dA[ms]dT*d[5mC]*dT*dT*dT*dA[ms]dT*kT*kA*eA*eA; antisense) [Compound 1736529],60 % control

# Same assay, conditions: spinal cord; single ICV bolus 300 μg; 16 weeks post treatment; normalized to mouse Ppia
row,Substance,APOE RNA (% control) Spinal Cord
1,1736514 (e[5mC]*eTeT*eG*kG*kT*dG[ms]dA[ms]dA[ms]dT*d[5mC]*dT*dT*dT*dA[ms]dT*eT*eA*eA*eA; antisense) [Compound 1736514],16 % control
2,1736529 (e[5mC]*eT*eT*eG*eG*eTdG[ms]dA[ms]dA[ms]dT*d[5mC]*dT*dT*dT*dA[ms]dT*kT*kA*eA*eA; antisense) [Compound 1736529],28 % control
